According to the Deep4Chem optical property database:
Values belong to the compound of their own block, whether it stands above or below them.

Assay: solvent given as SMILES
[1] = in O=P(c1ccccc1)(c1ccccc1)c1ccccc1Oc1ccccc1P(=O)(c1ccccc1)c1ccccc1

- emission maximum (in C1CCCCC1): 404 nm
- emission maximum (in C1CCOC1): 408 nm
- emission maximum (in C1COCCO1): 407 nm
- emission maximum (in CC#N): 411 nm
- emission maximum (in CC(C)(C)O): 411 nm
- emission maximum (in CC(C)O): 413 nm
- emission maximum (in CCCCCC): 401 nm
- emission maximum (in CCCCO): 414 nm
- emission maximum (in CCO): 414 nm
- emission maximum (in CCOC(C)=O): 407 nm
- emission maximum (in CN(C)C=O): 413 nm
- emission maximum (in CO): 417 nm
- emission maximum (in CS(C)=O): 417 nm
- emission maximum (in ClC(Cl)Cl): 413 nm
- emission maximum (in ClCCl): 413 nm
- emission maximum (in O): 440 nm
- emission maximum (in OCCO): 426 nm
SMILES: COc1ccc(/C=N/c2cc(C(C)C)c(O)cc2C)cc1

SMILES: CC1(C)c2ccccc2N(c2ccc(-c3nc(-c4ccccc4)cc(-c4ccccc4)n3)cc2)c2ccccc21
- emission maximum (in Cc1ccccc1): 454.83 nm

- emission maximum (in ClC(Cl)Cl): 429 nm
SMILES: N#Cc1cc2ccc3cc(C#N)c4ccccc4c3c2c2ccccc12

- emission maximum (in ClCCl): 494 nm
SMILES: CC(C)(C)c1ccc2c(c1)c1cc(C(C)(C)C)ccc1n2-c1ccc(N(c2ccc(-c3ccc(-c4ccc(-c5ccc(N(c6ccc(-n7c8ccc(C(C)(C)C)cc8c8cc(C(C)(C)C)ccc87)cc6)c6ccc(-n7c8ccc(C(C)(C)C)cc8c8cc(C(C)(C)C)ccc87)cc6)cc5)s4)s3)cc2)c2ccc(-n3c4ccc(C(C)(C)C)cc4c4cc(C(C)(C)C)ccc43)cc2)cc1

- emission maximum (in CC#N): 461 nm
SMILES: Cc1cc(C)c2nc3c(=O)[nH]c(=O)[nH]c3nc2c1

- emission maximum (in C1CCOC1): 383 nm
SMILES: O=Cc1ccc(C=C(c2ccccc2)c2ccccc2)cc1

SMILES: O=Cc1c(O)c(-c2nc3ccccc3s2)cc2ccccc12
- emission maximum (in C1CCOC1): 497 nm
- emission maximum (in CC#N): 505 nm
- emission maximum (in CC(C)=O): 507 nm
- emission maximum (in CCO): 503 nm
- emission maximum (in CCOC(C)=O): 501 nm
- emission maximum (in CN(C)C=O): 538 nm
- emission maximum (in CO): 525 nm
- emission maximum (in Cc1ccccc1): 509 nm
- emission maximum (in ClC(Cl)Cl): 505 nm
- emission maximum (in ClCCl): 505 nm

- emission maximum (in ClC(Cl)Cl): 387 nm
SMILES: CCOC(=O)C1(O)c2cc3ccc4cccc5ccc(c2C(=O)N1C(C)(C)C)c3c45 (configuration not stated)

SMILES: c1ccc2nc3cccc(-c4ccc(-n5c6ccccc6c6ccccc65)cc4)c3cc2c1
- emission maximum (in C1CCOC1): 466 nm
- emission maximum (in CC#N): 527 nm
- emission maximum (in CC(C)=O): 497 nm
- emission maximum (in CC(C)OC(C)C): 444 nm
- emission maximum (in CCCCCC): 434 nm
- emission maximum (in CCCCOCCCC): 442 nm
- emission maximum (in CCOC(C)=O): 460 nm
- emission maximum (in CCOCC): 443 nm
- emission maximum (in ClCCl): 486 nm

- emission maximum (in CC#N): 432 nm
SMILES: N#Cc1cccc(-c2pc3ccccc3s2)c1 (configuration not stated)

- emission maximum (in C1CCCCC1): 398 nm
- emission maximum (in C1CCOC1): 426 nm
- emission maximum (in C1COCCO1): 424 nm
- emission maximum (in CC#N): 425 nm
- emission maximum (in CC(C)(C)O): 431 nm
- emission maximum (in CC(C)O): 434 nm
- emission maximum (in CCCCCC): 401 nm
- emission maximum (in CCCCO): 436 nm
- emission maximum (in CCO): 429 nm
- emission maximum (in CCOC(C)=O): 421 nm
- emission maximum (in CN(C)C=O): 434 nm
- emission maximum (in CO): 434 nm
- emission maximum (in CS(C)=O): 439 nm
- emission maximum (in ClC(Cl)Cl): 430 nm
- emission maximum (in ClCCl): 424 nm
- emission maximum (in O): 449 nm
- emission maximum (in OCCO): 438 nm
SMILES: Cc1cc(O)c(C(C)C)cc1/N=C/c1ccc(C(F)(F)F)cc1

- emission maximum (in O): 435 nm
SMILES: O=C(O)CCCCCn1c2ccc(Br)cc2c(=O)c2cc(S(=O)(=O)O)ccc21

SMILES: COc1cc(C2=CC3=C(c4c(C)cc(C)cc4C)c4cc(-c5cc(OC)c(OC)c(OC)c5)c(-c5cc(OC)c(OC)c(OC)c5)n4[B-](F)(F)[N+]3=C2c2cc(OC)c(OC)c(OC)c2)cc(OC)c1OC
- emission maximum (in C1CCCCC1): 670 nm
- emission maximum (in C1CCOC1): 662 nm
- emission maximum (in CC#N): 628 nm
- emission maximum (in Cc1ccccc1): 677 nm
- emission maximum (in ClCCl): 651 nm

- emission maximum (in C1CCOC1): 440 nm
SMILES: C(=C(c1ccccc1)c1ccccc1)c1ccc(-c2cc(-c3ccc(C=C(c4ccccc4)c4ccccc4)cc3)c(-c3ccc(C=C(c4ccccc4)c4ccccc4)cc3)cc2-c2ccc(C=C(c3ccccc3)c3ccccc3)cc2)cc1

- emission maximum (in ClCCl): 577 nm
SMILES: CC(=O)c1ccc(C#Cc2ccc3c(N(C)C)cc(-c4ccccc4)cc3c2)cc1

- emission maximum (in ClCCl): 682 nm
SMILES: COc1c2ccccc2c(OC)c2c(C#CC(C)(C)C)c3cc4ccccc4cc3c(C#CC(C)(C)C)c12

SMILES: CC(C)[Si]1(C(C)C)c2cc(C#N)ccc2-c2ccc(N(c3ccccc3)c3ccccc3)cc21
- emission maximum (in C1CCCCC1): 413 nm
- emission maximum (in CC#N): 500 nm
- emission maximum (in CCO): 482 nm
- emission maximum (in CCOCC): 436 nm
- emission maximum (in CS(C)=O): 500 nm
- emission maximum (in ClCCl): 470 nm
- emission maximum (in c1ccccc1): 432 nm

- emission maximum (in CC#N): 476 nm
- emission maximum (in CCCCCC): 403 nm
SMILES: C(=C\c1cccnc1)/c1ccc(N(c2ccccc2)c2ccccc2)cc1

SMILES: CN(C)CCN(Cc1c2ccccc2cc2ccccc12)c1ccc([N+](=O)[O-])cc1
- emission maximum (in C1CCCCC1): 411 nm
- emission maximum (in C1CCOC1): 414 nm
- emission maximum (in CC#N): 389 nm
- emission maximum (in CC(C)=O): 387 nm
- emission maximum (in CCO): 410 nm
- emission maximum (in CN(C)C=O): 389 nm
- emission maximum (in CO): 389 nm
- emission maximum (in ClC(Cl)Cl): 415 nm

- emission maximum (in ClC(Cl)Cl): 635 nm
SMILES: CCCN1c2ccccc2Sc2cc(/C=C\c3cc(=O)oc4cc(NC(=O)OCC)ccc34)ccc21

SMILES: C=Cc1ccc(-c2ccc(-c3nnc(-c4ccc(-c5nnc(-c6ccc(-c7ccc(C=C)cc7)s6)o5)cc4)o3)s2)cc1
- emission maximum (in C1COCCO1): 397 nm
- emission maximum (in CC#N): 400 nm
- emission maximum (in CC(=O)N(C)C): 407 nm
- emission maximum (in CCCCCCCCCCO): 399 nm
- emission maximum (in CCCCCCCCO): 400 nm
- emission maximum (in CCCCCCO): 399 nm
- emission maximum (in CCCCO): 400 nm
- emission maximum (in CCO): 400 nm
- emission maximum (in CS(C)=O): 423 nm
- emission maximum (in Cc1ccccc1): 399 nm
- emission maximum (in ClC(Cl)Cl): 398 nm

- emission maximum (in ClCCl): 419 nm
SMILES: CC(C)(C)c1ccc(-n2c(-c3ccc(-c4ccc(N(c5ccccc5)c5ccccc5)cc4)s3)nc3c4ccccc4c4ccccc4c32)cc1

SMILES: c1ccc(-c2nc(-c3ccccc3)nc(-c3ccc(N4c5ccccc5C(c5ccccc5)(c5ccccc5)c5ccccc54)cc3)n2)cc1
- emission maximum [1]: 472.98 nm

SMILES: CCCCCCCCN1c2ccc(C#Cc3ccc(C(F)(F)F)cc3)cc2Sc2cc(C=O)ccc21
- emission maximum (in C1CCOC1): 512 nm
- emission maximum (in CC#N): 534 nm
- emission maximum (in CCCCCC): 490 nm
- emission maximum (in CO): 500 nm
- emission maximum (in CS(C)=O): 539 nm
- emission maximum (in Cc1ccccc1): 509 nm
- emission maximum (in ClC(Cl)Cl): 535 nm

- emission maximum (in CCO): 630 nm
- emission maximum (in ClCCl): 607 nm
- emission maximum (in O): 646 nm
SMILES: N#CC(C#N)=Cc1ccc(-c2cccc(-c3nc4ccccc4s3)c2O)s1

- emission maximum (in ClC(Cl)Cl): 510 nm
SMILES: COc1ccc(-c2oc3cccc4c5c(-c6ccc(OC)c(OC)c6)c(=N)oc6cccc(c2c34)c65)cc1OC

- emission maximum (in CS(C)=O): 568 nm
SMILES: C[N+]1=C(/C=C/C=C2/N(CCC[N+](C)(C)C)c3ccc(Br)cc3C2(C)C)C(C)(C)c2ccccc21

SMILES: C(=C\c1ccc(/C=C/c2ccc(N(c3ccccc3)c3ccccc3)cc2)c2nsnc12)/c1ccc(N(c2ccccc2)c2ccccc2)cc1
- emission maximum (in C1CCOC1): 637 nm
- emission maximum (in CCOC(C)=O): 627 nm
- emission maximum (in CN(C)C=O): 690 nm
- emission maximum (in Cc1ccccc1): 611 nm
- emission maximum (in ClC(Cl)Cl): 651 nm
- emission maximum (in ClCCl): 659 nm

SMILES: CCCOc1ccc(/C=C/C=C/C=C/c2ccc([N+](=O)[O-])cc2)cc1
- emission maximum (in CC1CCCCC1): 488 nm
- emission maximum (in CC#N): 747 nm
- emission maximum (in Cc1ccccc1): 546 nm
- emission maximum (in ClCCl): 699 nm

SMILES: CCN(CC)c1ccc(-c2cc3c(s2)c(C(=O)OC)cc(=O)n3C)cc1
- emission maximum (in C1CCOC1): 543 nm
- emission maximum (in CC#N): 605 nm
- emission maximum (in CCO): 516 nm
- emission maximum (in CN(C)C=O): 604 nm
- emission maximum (in CO): 503 nm
- emission maximum (in CS(C)=O): 615 nm
- emission maximum (in Cc1ccccc1): 504 nm
- emission maximum (in ClC(Cl)Cl): 545 nm
- emission maximum (in ClCCl): 562 nm

SMILES: CC1(C)c2ccccc2-n2c(-c3ccc(N4c5ccccc5Oc5ccccc54)cc3)nc3cccc1c32
- emission maximum (in Cc1ccccc1): 502 nm
- emission maximum [1]: 485 nm

- emission maximum (in ClC(Cl)Cl): 524 nm
SMILES: CN(C)c1ccc(-c2nc(-c3ccccc3)n3ccccc23)cc1

- emission maximum (in C1CCCCC1): 640 nm
- emission maximum (in CCOC(C)=O): 700 nm
SMILES: CC1=[N+]2C(=C(NC(C)c3ccccc3)c3ccc(C)n3[B-]2(F)F)C=C1c1cc2n(c1)[B-](F)(F)[N+]1=CC=CC1=C2c1c(C)cc(C)cc1C (configuration not stated)

- emission maximum (in ClCCl): 602 nm
SMILES: CCOC(=O)/C=C/C1=[N+]2C(=C(c3c(C)cc(C)cc3C)c3ccc(/C=C/C(=O)OCC)n3[B-]2(F)F)C=C1

- emission maximum (in CC1CCCO1): 500 nm
SMILES: O=c1oc2ccc3cccc4c(O)c(Cl)c(c1Cl)c2c34

SMILES: CCOc1ccc(/C=C/C=C/C=C/c2ccc([N+](=O)[O-])cc2)cc1
- emission maximum (in CC1CCCCC1): 488 nm
- emission maximum (in CC#N): 740 nm
- emission maximum (in Cc1ccccc1): 541 nm
- emission maximum (in ClCCl): 694 nm

- emission maximum (in C1CCOC1): 527 nm
SMILES: N#Cc1c(N2CCCC2)cc(-c2ccccc2)c2c1-c1ccccc1C2=O

- emission maximum (in CC(C)O): 551 nm
- emission maximum (in CCO): 550 nm
- emission maximum (in CO): 542 nm
- emission maximum (in O): 538 nm
SMILES: O=C([O-])c1ccccc1-c1c2cc(Br)c(=O)c(Br)c-2oc2c(Br)c([O-])c(Br)cc12

SMILES: CC1(C)Nc2ccccc2-c2[nH]c3ccccc3c(=O)c21
- emission maximum (in C1CCOC1): 483 nm
- emission maximum (in CC#N): 507 nm
- emission maximum (in CCCCO): 521 nm
- emission maximum (in CCCO): 522 nm
- emission maximum (in CCO): 523 nm
- emission maximum (in CCOC(C)=O): 491 nm
- emission maximum (in CN(C)C=O): 506 nm
- emission maximum (in CO): 531 nm
- emission maximum (in CS(C)=O): 510 nm
- emission maximum (in Cc1ccccc1): 471 nm
- emission maximum (in ClC(Cl)(Cl)Cl): 460 nm
- emission maximum (in ClCCl): 491 nm
- emission maximum (in O): 552 nm
- emission maximum (in c1ccccc1): 474 nm

- emission maximum (in C1CCCCC1): 417 nm
- emission maximum (in CC#N): 427 nm
- emission maximum (in CCO): 434 nm
- emission maximum (in ClCCl): 428 nm
SMILES: O=P1(c2ccccc2)c2ccccc2-c2sc3ccccc3c21 (configuration not stated)

- emission maximum (in ClCCl): 360 nm
SMILES: Cc1cc2ccccc2c2[nH]c3ccccc3c12

- emission maximum (in ClC(Cl)Cl): 738 nm
SMILES: COc1ccc(-c2cc3c(o2)=CC2=C(C(F)(F)F)c4cc5oc(-c6ccc(OC)cc6)cc5n4[B-](F)(F)[N+]=32)cc1
